Measurements published in article PMC6243185 (The Korean Journal of Parasitology, 2018).

Target: T1, AcCP (rAcCP) (Acanthamoeba castellanii, UniProt A1YJR6)
T1 sequence (A1YJR6 44-330): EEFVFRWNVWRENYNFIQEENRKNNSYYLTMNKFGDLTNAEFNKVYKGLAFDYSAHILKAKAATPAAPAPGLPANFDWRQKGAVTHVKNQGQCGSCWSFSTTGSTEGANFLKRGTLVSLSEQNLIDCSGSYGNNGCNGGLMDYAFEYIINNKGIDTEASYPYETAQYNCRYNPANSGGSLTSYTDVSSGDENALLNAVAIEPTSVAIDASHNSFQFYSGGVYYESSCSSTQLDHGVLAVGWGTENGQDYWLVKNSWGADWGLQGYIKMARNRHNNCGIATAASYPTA
Test: inhibition of fluorogenic substrate hydrolysis
Format: biochemical
Settings: fully processed rAcCP; data not shown; covalent

## CC(C)C[C@H](NC(=O)[C@H]1O[C@@H]1C(=O)O)C(=O)NCCCCN=C(N)N [E-64, trans-epoxy-succinyl-L-leucylamido(4-guanidino)-butane]
  inhibition of fluorogenic substrate hydrolysis; active site titration: The fully processed rAcCP was effectively inhibited by a cysteine protease inhibitor, E-64 (data not shown)
